# Laboratory results from US11566007B2, “Ras inhibitors” (Revolution Medicines, Inc., priority 2019, dated 2023).
# What was measured:
# [1] = test system: NCI-H358 cells (K-Ras G12C); test: Potency assay: pERK in NCI-H358 cells; type: cell-based, human; settings: Homo sapiens, NCI-H358; H358 KRAS G12C; read-out: pERK EC50
# Outline: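 4 h cpd, 37 °C; 10-pt 3-fold series, 10 mM DMSO top stock, duplicates. Readout pERK: AlphaLISA SureFire Ultra or In-Cell Western (IR-800CW secondary, DRAQ5 DNA stain). IC50, 4-PL fit vs log conc.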
# [2] = target: K-Ras G12C (Homo sapiens (Human), UniProt P01116+P62937, G12C); test: Ras-Raf (BRAF RBD) disruption / FRET / MOA assay, KRAS G12C; type: biochemical; settings: KRAS G12C; Ras-Raf disruption/FRET/MOA assay; read-out: IC50* KRAS G12C FRET data
# Sequence of K-Ras G12C (P01116-2 other isoform, or with tags, fused parts or gaps G12C): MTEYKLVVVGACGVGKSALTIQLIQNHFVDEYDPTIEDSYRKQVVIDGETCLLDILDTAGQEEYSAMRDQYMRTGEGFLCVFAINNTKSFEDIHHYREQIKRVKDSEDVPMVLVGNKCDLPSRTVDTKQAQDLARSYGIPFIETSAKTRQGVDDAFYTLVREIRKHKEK
# Sequence of K-Ras G12C (P62937 whole entry): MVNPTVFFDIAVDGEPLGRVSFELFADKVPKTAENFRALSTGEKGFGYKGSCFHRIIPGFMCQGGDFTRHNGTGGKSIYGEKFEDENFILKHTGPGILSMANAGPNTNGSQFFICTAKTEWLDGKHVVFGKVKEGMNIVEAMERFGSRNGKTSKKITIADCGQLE
# Outline: (§1)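 Compound-driven ternary complex of nucleotide-loaded Ras with cyclophilin A, disrupting BRAF RBD binding. 10-point 3-fold dilution from 30 μM final, 3 h at 25° C, then anti-His Eu-W1024 (10 nM) and anti-GST allophycocyanin (50 nM) for 1.5 h. IC50 from TR-FRET ratio decrease versus DMSO.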
# [3] = target: KRAS G12S (Homo sapiens (Human), UniProt P01116+P62937, G12S); test: Ras-Raf (BRAF RBD) disruption / FRET / MOA assay, KRAS G12S; type: biochemical; settings: Ras-Raf disruption/FRET/MOA assay; class symbols; read-out: KRAS G12S FRET data IC50
# Sequence of KRAS G12S (P01116-2 other isoform, or with tags, fused parts or gaps G12S): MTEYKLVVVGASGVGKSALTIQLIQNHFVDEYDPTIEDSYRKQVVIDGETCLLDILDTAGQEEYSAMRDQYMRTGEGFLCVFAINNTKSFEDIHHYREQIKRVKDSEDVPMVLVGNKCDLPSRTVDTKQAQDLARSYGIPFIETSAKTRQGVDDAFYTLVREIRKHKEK
# Sequence of KRAS G12S (P62937 whole entry): as the sequence (P62937 whole entry) above
# Outline: as §1
# [4] = target: KRAS G12V (Homo sapiens (Human), UniProt P01116+P62937, G12V); test: Ras-Raf (BRAF RBD) disruption / FRET / MOA assay, KRAS G12V; type: biochemical; settings: read-out: IC50* KRAS G12V FRET data
# Sequence of KRAS G12V (P01116-2 other isoform, or with tags, fused parts or gaps G12V): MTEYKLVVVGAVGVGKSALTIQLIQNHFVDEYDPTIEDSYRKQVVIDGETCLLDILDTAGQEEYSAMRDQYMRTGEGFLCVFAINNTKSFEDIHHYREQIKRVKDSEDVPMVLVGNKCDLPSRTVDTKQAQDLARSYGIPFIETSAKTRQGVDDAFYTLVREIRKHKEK
# Sequence of KRAS G12V (P62937 whole entry): as the sequence (P62937 whole entry) above
# Outline: as §1
# [5] = target: KRAS G13D (Homo sapiens (Human), UniProt P01116+P62937, G13D); test: Ras-Raf (BRAF RBD) disruption / FRET / MOA assay, KRAS G13D; type: biochemical; settings: read-out: IC50* KRAS G13D FRET data
# Sequence of KRAS G13D (P01116-2 other isoform, or with tags, fused parts or gaps G13D): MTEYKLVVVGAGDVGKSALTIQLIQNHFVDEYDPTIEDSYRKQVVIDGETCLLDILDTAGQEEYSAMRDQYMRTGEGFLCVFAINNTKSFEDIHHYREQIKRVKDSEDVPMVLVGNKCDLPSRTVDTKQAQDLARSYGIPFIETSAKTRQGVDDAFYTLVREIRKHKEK
# Sequence of KRAS G13D (P62937 whole entry): as the sequence (P62937 whole entry) above
# Outline: as §1
# [6] = target: NRAS G12C (Homo sapiens (Human), UniProt P01111+P62937, G12C); test: Ras-Raf (BRAF RBD) disruption / FRET / MOA assay, NRAS G12C; type: biochemical; settings: read-out: IC50* NRAS G12C FRET data
# Sequence of NRAS G12C (P01111 whole entry G12C): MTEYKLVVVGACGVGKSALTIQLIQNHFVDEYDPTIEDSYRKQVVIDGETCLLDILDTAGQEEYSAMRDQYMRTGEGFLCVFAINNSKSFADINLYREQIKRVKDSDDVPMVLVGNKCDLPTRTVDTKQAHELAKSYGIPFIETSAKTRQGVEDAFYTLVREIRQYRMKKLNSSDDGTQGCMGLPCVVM
# Sequence of NRAS G12C (P62937 whole entry): as the sequence (P62937 whole entry) above
# Outline: as §1
# [7] = target: NRAS WT (Homo sapiens (Human), UniProt P01111+P62937); test: Ras-Raf (BRAF RBD) disruption / FRET / MOA assay, NRAS WT; type: biochemical; settings: read-out: IC50* NRAS WT FRET data
# Sequence of NRAS WT (P01111 whole entry): as the sequence (P01111 whole entry G12C) above, with C12G counted along it
# Sequence of NRAS WT (P62937 whole entry): as the sequence (P62937 whole entry) above
# Outline: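 Compounds (30 μM top final, 10-point 3-fold dilutions) incubated 3 h at 25° C with nucleotide-loaded Ras, cyclophilin A and BRAF RBD. Detection with 10 nM anti-His Eu-W1024 and 50 nM anti-GST allophycocyanin over another 1.5 h. Lowered TR-FRET ratio relative to DMSO wells gives IC50.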
SMILES,EC50 [1] [µM],IC50 [2] [µM],IC50 [3] [µM],IC50 [4] [µM],IC50 [5] [µM],IC50 [6] [µM],IC50 [7] [µM]
"CCn1c(-c2cccnc2[C@H](C)OC)c2c3cc(ccc31)N1CCO[C@@H](C[C@H](NC(=O)[C@H](C(C)C)N(C)C(=O)C3(F)CCN(C(=O)/C=C/CN(C)C)CC3)C(=O)N3CCC[C@H](N3)C(=O)OCC(C)(C)C2)C1 (atropisomer, axis not shown) [Example A645]",< 5,0.01 to 0.1,1 to 10,1 to 10,1 to 10,0.01 to 0.1,1 to 10
"CC#CC(=O)N1CC2(CCN2C(=O)N(C)[C@H](C(=O)N[C@H]2Cc3nc(cs3)-c3ccc4c(c3)c(c(-c3cccnc3[C@H](C)OC)n4CC)CC(C)(C)COC(=O)[C@@H]3CCCN(N3)C2=O)C(C)C)C1 (atropisomer, axis not shown) [Example A655]",< 5,0.1 to 1,0.1 to 1,0.1 to 1,0.1 to 1,0.1 to 1,0.1 to 1
"C=CC(=O)N1CC[C@]2(CCN2C(=O)N(C)[C@H](C(=O)N[C@H]2Cc3nc(cs3)-c3ccc4c(c3)c(c(-c3cccnc3[C@H](C)OC)n4CC)CC(C)(C)COC(=O)[C@@H]3CCCN(N3)C2=O)C(C)C)C1 (atropisomer, axis not shown) [Example A662]",< 5,0.01 to 0.1,0.1 to 1,0.1 to 1,0.1 to 1,0.01 to 0.1,0.1 to 1
"CCn1c(-c2cccnc2[C@H](C)OC)c2c3cc(ccc31)-c1csc(n1)C[C@H](NC(=O)[C@H](C(C)C)N(C)C(=O)N1CCCOC13CN(C(=O)C#CC(C)(C)N(C)C)C3)C(=O)N1CCC[C@H](N1)C(=O)OCC(C)(C)C2 (atropisomer, axis not shown) [Example A666]",< 5,1 to 10,> 10,> 10,> 10,1 to 10,> 10
"C=CC(=O)N1CC[C@]2(COCCN2C(=O)N(C)[C@H](C(=O)N[C@H]2Cc3nc(cs3)-c3ccc4c(c3)c(c(-c3cccnc3[C@H](C)OC)n4CC)CC(C)(C)COC(=O)[C@@H]3CCCN(N3)C2=O)C(C)C)C1 (atropisomer, axis not shown) [Example A676]",< 5,0.1 to 1,1 to 10,1 to 10,1 to 10,0.01 to 0.1,0.1 to 1
"C=CC(=O)N1CC2(CCN(C(=O)N(C)[C@H](C(=O)N[C@H]3Cc4cccc(c4)-c4ccc5c(c4)c(c(-c4cccnc4[C@H](C)OC)n5CC)CC(C)(C)COC(=O)[C@@H]4CCCN(N4)C3=O)C(C)C)CC2)C1 (atropisomer, axis not shown) [Example A680]",< 5,0.1 to 1,0.1 to 1,0.1 to 1,1 to 10,0.1 to 1,0.1 to 1
"C=CC(=O)N1CC[C@@H]2[C@H](C1)CN2C(=O)N(C)[C@H](C(=O)N[C@H]1Cc2nc(cs2)-c2ccc3c(c2)c(c(-c2cccnc2[C@H](C)OC)n3CC)CC(C)(C)COC(=O)[C@@H]2CCCN(N2)C1=O)C(C)C (atropisomer, axis not shown) [Example A688]",< 5,0.1 to 1,1 to 10,1 to 10,1 to 10,0.1 to 1,0.1 to 1
"C=CC(=O)N1CCC2(CCCN(C(=O)N(C)[C@H](C(=O)N[C@H]3Cc4nc(cs4)-c4ccc5c(c4)c(c(-c4cccnc4[C@H](C)OC)n5CC)CC(C)(C)COC(=O)[C@@H]4CCCN(N4)C3=O)C(C)C)C2)CC1 (atropisomer, axis not shown) [Example A696]",< 5,0.1 to 1,0.1 to 1,0.1 to 1,1 to 10,0.1 to 1,0.1 to 1
